Consider one sequence from patent US7339042B2, “Gene delivery to tumors” (University of Florida Research Foundation, Inc., priority 2003, dated 2008).

Entries after “also recorded” stand apart in the source; their conditions may differ. No end group written: not given here.

One experiment deals with A172 cells. Put plainly: Fluorescein peptide uptake by A172 cells, fluorescence microscopy. In kind it is cell-based, human. Particulars: 30 uM peptide, 1 hr, 37° C., serum containing media. As for the experimental part:
(§1) For fluorescent microscopy studies cells were plated on 2 chamber cover slips at a density of 1×10^4 cells/chamber. Cells were incubated with […] peptide for 30 minutes in completed media, washed with PBS 3× and imaged using a Nikon Axiophot inverted fluorescent microscope. Images were taken using a Spot CCD camera.
Synthetic peptides derived from HIV Tat (Tat) and the Drosophila antennaepedia homeodomain (ANT) were tested for cell uptake by A172 cells (human glioblastomas). The peptides were labeled at the N-terminus with fluorescein. Cells were incubated with 30 uM peptide at 37° C. in serum containing media. Fluorescent micrographs were taken after 1 hr incubation at 37° C. […] The size of the peptide was increased by added an Mdm-2 binding domain derived from P14ARF. This domain was added to the C-terminus of the Tat and ANT peptides. The P14ARF domain was also placed at the N-terminus followed by the Tat peptide. All the peptides were labeled at the N-terminus with fluorescein and cell incubations similar to the Tat and ANT peptides were tested for cellular uptake. […] Both the bright field and fluorescent micrographs show altered cell morphology.

In experiment [1] the test system is rat cerebral arteries. Put plainly: Cell viability staining of arteries (propidium iodide, H3334) after peptide. In kind it is cell-based. The conditions noted are these: after treatment with peptide. As for the experimental part:
No PI statined smooth muscle cell nuclei were observed.
(§2) Effect of peptide on endothelial and smooth muscle function was evaluated by histamine (0.3 and 1 μM) and bradykinin (0.5 μM) (endothelium-dependent vasodilators) and 16 and 60 mM KCl (results in dilation and constriction of arteries by hyperpolarizing and depolarizing smooth muscle, respectively). These drug solutions were added to the superfusate and applied to the arteries extraluminally for 10 to 15 min before and after intraluminal perfusion with peptides. Effects of these agents were expressed as percent change in myogenic tone (decrease for dilators and increase for constrictors). Experiments were concluded by exposing the arteries to calcium free PCSF to obtain the passive diameter. Cell viability was determined by adding H3334 (Hoechst viability stain, final concentration 1 μM) and propidium iodide (final concentration 1 μM) to the arteriograph after the peptide incubation. Fluorescent micrographs were taken of the vessels after incubation with peptides and following addition of the vital stains using Till Photonics imaging system (Martinsried, Germany).

A further experiment has as its system T98G cells. Put plainly: Fusion peptide cell killing, propidium iodide/FACS viability, T98G cells. Particulars: 10 μM peptide, 1 hr. It counts as cell-based, human. As for the experimental part: (§3) Other experiments were performed using two glioma cell lines, i.e., T98G and RG2. 1×10^6 cells per well were incubated in 6-well plates with peptides in complete media for 1 hr. Cells were removed from the plate using a cell stripper and the percentage of viable cells was determined by staining with propidium iodide and analyzing by fluorescence activated cell sorting (FACS).
(§4) Cell viability studies were performed by plating the cells under the same conditions as the uptake studies. Cells were incubated with fluorescent peptides for 1 hr at 37° C. The cells were removed from the plate using cell striper. They were labeled with propidium iodide and fluorescein-AM. Percent PI positive cells were determined by FACS.

The test system of experiment [2] is RG2 cells. Put plainly: Fusion peptide cell killing, propidium iodide/FACS viability, RG2 cells. It counts as cell-based, rat. The method, then: as §3
There are 4 conserved amino acid differences between the rat and human CDKI sequence. Both sequences were attached to Tat and tested for cell killing activity in the rat glioma RG2 cells. Also the effect of orientation of the Tat and CDKI domains were tested. RG2 cells were plated on 6 well plates at approximately 70% confluency. Each of the peptides was added to the wells with increasing concentration. After 1 hr, cells were removed from the plates, washed 2× with PBS, stained with propidium iodide and analyzed by FACS for viable cells.
as §4
The cytotoxicity of the chimeric peptides was characterized using a cell viability assay. Peptides were added to cells at a fixed concentration. After a 30-minute incubation, cells were removed from the plate, stained with propidium iodide and the % positive cells were determined by FACS (fluorescent activated cell scanning). The test conditions were Tat, ANT, Tat-P14ARF, ANT-P14ARF and P14ARF. T98G cells were tested along with RG2 cells and A172 cells.

The next experiment relates to A172 glioblastoma cells. Put plainly: Peptide incubation with A172 glioblastoma cells, viability. In kind it is cell-based, human. Particulars: 6 μM, 30 minutes at 37° C. The method, then: Fusion proteins containing a Tat domain and a p16 domain were synthesized as peptides. Two forms of the peptides were made, one with Tat on the amino terminus (designated Tat-P16), and the other with p16 on the amino terminus (P16-Tat). Control peptides were synthesized having only the Tat or P16 sequence. The peptides were incubated with A172 glioblastoma cells, then the cells were assayed for viability.

Experiment [3] relates to endothelial cells and smooth muscle cells of rat cerebral arteries. The experiment in a line: Uptake of fluorescent peptides by pressure-mounted rat cerebral arteries. In kind it is cell-based. As for the experimental part:
Tat-P16 peptides were prepared and labeled with fluorescein for use in uptake studies using intact blood vessels isolated from rat brain. Blood vessels were dissected from rat brain and stabilized in an isolated perfusion system in which vessels were attached on either end to catheters and placed under physiological pressure. Following a 10 minute perfusion of the isolated vessels with flurorescent Tat-P16 peptide (1 μM), vessels were examined for uptake of the peptides. […] Within the endothelial cells, the labeled peptides were seen to be localized to the cell nuclei, further confirming uptake of the peptides by the cells.
The peptides are fairly labile in the media and approximately 50% are degraded upon incubation at 37° C. in complete media (qualitative analysis by PAGE) after 1 hour. […] Uptake of these peptides and cell killing activity was tested in a 3 dimensional organ culture using rat cerebral arteries cultured under physiological pressure and flow. A segment of the rat cerebral artery is surgically removed and placed in ringer's solution. Using a surgical stereoscope, the blood vessel is tied at either end to two cannulas on a teflon stage. Ringer's solution is perfused through the lumen of the vessel at a constant rate that maintains physiologic hydrostatic pressure. The fluorescent peptide was introduced intraluminally by perfusing a 1 μM solution of peptide through the lumen over a 10 minute period.
Rats were anesthetized by intraperitoneal injection of pentobarbital sodium (160 mg/kg) and killed by decapitation. The brain was removed and placed in an ice-cold oxygenated physiological cerebrospinal fluid (PCSF, see below for composition). Cerebellar arteries were isolated and mounted in an arteriograph as described previously (Knot and Nelson 1998). The arteriograph was placed on an inverted microscope and the artery was visualized with a monochrome CCD camera coupled to a calibrated video caliper system to measure arterial diameter. The arteries were slowly pressurized to 70 mmHg under no flow conditions using a pressure servo-null system (Living Systems Inc., Burlington Vt.), and warmed to 37° C. while being continuously superfused (5 ml/min) with PCSF bubbled with 21% O2, 5% CO2, 74% N2 (pH 7.35-7.40 in the bath). […] Myogenic tone is calculated by the following equation: Myogenic tone=(Dp−Da)/Dp×100
(§5) In some experiments, the arterial segments were denuded of endothelium by passing an air bubble through the lumen, thus exposing the smooth muscle cells to luminally administered peptides. Constriction to pressure and 60 mM KCl and dilation of arteries with myogenic tone to 16 mM KCl were used as benchmarks of functional arteries. Peptide containing PCSF was perfused intraluminally at an inlet pressure of 70 mmHg with the outlet open, for 20 min and then perfused with normal PCSF. This procedure ensures a 20 min of exposure of the arteries to the peptide.

Experiment [4] deals with rat cerebral arteries. The experiment in a line: Vasodilation and vasoconstriction response of rat cerebral arteries before and after peptide. In kind it is cell-based. The conditions noted are these: after vs before intraluminal peptide. The method, then:
The blood vessels were put in culture described above and perfused with buffer of the same composition as cerebrospinal fluid. Vessel diameter was measured before and after administration of each reagent. 3 μM of each peptide was perfused through for 10 minutes followed by a 10 minute wash through. Vasoconstriction and vasodilation were determined for each vessel before peptide was applied. Perfusion was continued until the vessels relaxed to their original diamter (approximately 30 minutes). The vasoconstriction and vasodilation reponse was remeasured after the 10 minute wash through. The 60 mM KCl and 16 mM KCl conditions are […], respectively. Histamine and Bradykinin are endothelial cell vasodilators.
as §5, §2

Experiment [5] concerns RG2 cells. Put plainly: Fluorescein peptide uptake by RG2 cells, fluorescence microscopy. In kind it is cell-based, rat. As for the experimental part:
as §1
Similar observations were obtained for all the peptides in another human glioblastoma cell line, T98G.

[6] abbreviates: intraluminal perfusion of fluorescent peptide.

As to “AGGGYGRKKRRQRRRMVRRFLVTLRIRRA [Tat-P14ARF]”, the “staining pattern (cell uptake)” value in the experiment on A172 cells and in the experiment on RG2 cells [5] was “nuclear staining” each time. In addition, the “propidium iodide staining of blood vessels” value in the experiment on rat cerebral arteries [1] is on record as “predominantly horizontal endothelial nuclei being stained indicating cell death”. Also, the “% killing (toxicity)” value in the experiment with T98G cells is 65%; in the experiment with RG2 cells [2] (10 μM peptide, 1 hr), 61%. Besides, in the experiment with RG2 cells [2] (dose response 1 μM to 10 μM), the IC50 was around 10 µM. Besides, the effect on cells entry with A172 glioblastoma cells is “began to round up and subsequently die”. Further, the “morphology of the endothelial cells” value in experiment [3] (after intraluminal exposure) is on record as “morphology of the endothelial cells was altered”. Moreover, the “labeling/uptake by endothelial cells” value was “same labeling pattern as the Tat alone” in experiment [3] (setting [6]) and “taken up by the endothelial cells; also recorded: localized to the endothelial cells” in experiment [3] (intraluminal perfusion of fluorescent peptide, listed as Tat-P16). For the same sequence, the “labeling/uptake by smooth muscle cells” value in experiment [3] (setting [6]) is listed as “No evidence was seen of uptake”. Further, the “endothelium-dependent dilation to histamine and bradykinin” value is “inhibited endothelial cell response to histamine and bradykinin; also recorded: significantly reduced” in the experiment on rat cerebral arteries [4]; “lack of response to vasodilators” in the experiment on rat cerebral arteries [4] (listed as Tat-CDKI). The “smooth muscle response to 60 and 16 mM KCl” value with rat cerebral arteries [4] was “unaffected; also recorded: not affected”.
